Here are results for 14 compounds from patent US8642609B2, “Modulators of ATP-binding cassette transporters” (Vertex Pharmaceuticals Incorporated, priority 2003, dated 2014).

The assay deals with T1, ΔF508-CFTR (Homo sapiens, UniProt P13569, DEL508-508).
T1 construct: expressed in transfected cells
Put plainly: Membrane potential optical assay (FRET/VIPR), identification of correction compounds. It counts as cell-based. The conditions noted are these: for Emax: relative efficacy. The essentials:
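Corrector screen: FRET voltage-sensor dyes (CC2-DMPE donor, DiSBAC2(3)) report Cl^− efflux-driven depolarization after 10 μM forskolin and 20 μM genistein in Cl^−-free medium. Beforehand, ΔF508-CFTR NIH3T3 fibroblasts received compound for 16 hrs at 37° C; temperature-corrected cells (27° C) served as positive control.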

T1 sequence (P13569 with tags, fused parts or gaps DEL508-508): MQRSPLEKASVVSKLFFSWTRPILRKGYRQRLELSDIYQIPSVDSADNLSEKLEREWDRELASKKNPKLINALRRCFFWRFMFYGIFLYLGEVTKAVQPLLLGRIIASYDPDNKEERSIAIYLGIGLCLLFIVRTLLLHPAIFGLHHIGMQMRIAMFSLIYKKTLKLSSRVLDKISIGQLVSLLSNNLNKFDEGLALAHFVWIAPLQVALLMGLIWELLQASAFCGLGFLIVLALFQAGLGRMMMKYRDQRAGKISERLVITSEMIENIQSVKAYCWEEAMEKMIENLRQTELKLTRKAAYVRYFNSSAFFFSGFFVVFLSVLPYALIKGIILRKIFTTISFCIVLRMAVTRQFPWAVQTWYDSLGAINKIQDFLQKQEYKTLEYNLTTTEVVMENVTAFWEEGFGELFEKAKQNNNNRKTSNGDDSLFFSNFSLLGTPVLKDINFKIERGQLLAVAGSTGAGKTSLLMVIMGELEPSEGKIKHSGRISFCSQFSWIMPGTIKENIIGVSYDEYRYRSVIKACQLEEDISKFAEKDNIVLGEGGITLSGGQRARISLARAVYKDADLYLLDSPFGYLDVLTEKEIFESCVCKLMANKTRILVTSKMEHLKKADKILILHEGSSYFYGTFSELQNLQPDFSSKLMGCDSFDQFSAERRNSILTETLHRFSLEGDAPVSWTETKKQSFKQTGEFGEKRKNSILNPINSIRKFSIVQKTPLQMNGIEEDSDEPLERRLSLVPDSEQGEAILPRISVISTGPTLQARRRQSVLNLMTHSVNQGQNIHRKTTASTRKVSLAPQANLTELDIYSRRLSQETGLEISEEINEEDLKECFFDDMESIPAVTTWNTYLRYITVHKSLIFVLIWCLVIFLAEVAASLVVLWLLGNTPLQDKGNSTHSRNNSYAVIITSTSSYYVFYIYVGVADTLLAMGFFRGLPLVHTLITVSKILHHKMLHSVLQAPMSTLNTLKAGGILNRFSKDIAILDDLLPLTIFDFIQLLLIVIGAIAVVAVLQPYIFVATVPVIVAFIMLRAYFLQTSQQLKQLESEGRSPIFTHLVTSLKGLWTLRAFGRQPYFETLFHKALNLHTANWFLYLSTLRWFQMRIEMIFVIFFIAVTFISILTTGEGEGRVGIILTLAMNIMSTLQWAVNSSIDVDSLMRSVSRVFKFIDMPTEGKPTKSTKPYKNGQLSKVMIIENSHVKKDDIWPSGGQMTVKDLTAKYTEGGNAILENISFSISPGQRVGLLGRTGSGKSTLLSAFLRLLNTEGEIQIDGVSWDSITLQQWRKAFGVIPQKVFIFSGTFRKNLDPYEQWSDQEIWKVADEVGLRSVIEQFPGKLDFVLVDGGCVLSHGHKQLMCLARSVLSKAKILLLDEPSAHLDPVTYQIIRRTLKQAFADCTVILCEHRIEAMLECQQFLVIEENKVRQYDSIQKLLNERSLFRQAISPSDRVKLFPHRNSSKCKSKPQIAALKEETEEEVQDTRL

The EC50 is the concentration at which the effect is half-maximal. In general, Emax refers to the size of the effect at its maximum, as opposed to the concentration needed. Regarding `CC(c1nc2ccc(C#N)cc2c(=O)n1C)N1CCN(S(=O)(=O)c2ccc(Cl)cc2)CC1` (stereo not shown) [compound 126], the EC50 was 10 to 25 µM and the Emax lay in the range of 25 to 100%.
Take `CCCn1c(C(C)N2CCN(S(=O)(=O)c3ccc(Cl)cc3)CC2)nc2ccccc2c1=O` (stereo not shown) [compound 26]: the concentration giving a half-maximal response (EC50) is under 10 µM and the maximal effect (Emax) was over 100%.
The corresponding values for `CC(c1nc2ccc(Cl)cc2c(=O)n1C)N1CCN(C(=O)Nc2ccc(F)cc2F)C(C)C1` (stereo not shown) [compound 3] are 25 to 60 µM and under 25%.
In the same order, the values of `CCOC(=O)c1cnc(C(C)N2CCN(S(=O)(=O)c3ccc(OC)cc3)CC2)[nH]c1=O` (stereo not shown) [compound 349] are 25 to 60 µM and 25 to 100%.
In the same order, the values of `COc1ccc(S(=O)(=O)N2CCN(C(C)c3nc4cc(Cl)ccc4c(=O)n3C)CC2)cc1` (stereo not shown) [compound 93] are under 10 µM and 25 to 100%.
As for `COc1ccc(S(=O)(=O)N2CCN(C(C)c3nc4ccc(NC(C)=O)cc4c(=O)n3C)CC2)cc1` (stereo not shown) [compound 155], the EC50 was under 10 µM and the Emax fell in the range of 25 to 100%.
The corresponding values for `COc1ccc(S(=O)(=O)N2CCN(C(C)c3nc4ccccc4c(=O)n3C)CC2)cc1` (stereo not shown) [compound 6] are 10 to 25 µM and 25 to 100%.
Take `CC(c1nc2ccccc2c(=O)n1C)N(C)CCNS(=O)(=O)c1ccc(Cl)cc1` (stereo not shown) [compound 238]: the EC50 was in the range of 25 to 60 µM and the maximal effect (Emax) was under 25%.
The corresponding values for `CCCn1c(C(C)N2CCN(S(=O)(=O)c3ccc4ccccc4c3)CC2)nc2ccccc2c1=O` (stereo not shown) [compound 47] are under 10 µM and 25 to 100%.
Take `COc1ccc(S(=O)(=O)N2CCC(NC(C)c3nc4ccccc4c(=O)n3C)CC2)cc1` (stereo not shown) [compound 208]: the EC50 lay within 25 to 60 µM and the maximum response (Emax) lay in the range of 25 to 100%.
The corresponding values for `CC(C)c1ccc(S(=O)(=O)N2CCN(C(C)c3nc4ccccc4c(=O)n3C)CC2)cc1` (stereo not shown) [compound 273] are 25 to 60 µM and under 25%.
The corresponding values for `CCC(c1nc(N2CCCCC2)c2ccccc2n1)N1CCN(S(=O)(=O)c2ccc(OC)cc2)CC1` (stereo not shown) [compound 336] are under 10 µM and over 100%.
As to `CC(c1nc2ccccc2c(=O)n1C)N1CCN(S(=O)(=O)c2cccc3cccnc23)CC1` (stereo not shown) [compound 276], the concentration giving a half-maximal response (EC50) is 25 to 60 µM and the Emax was under 25%.
The corresponding values for `COC(=O)c1ccccc1S(=O)(=O)N1CCN(C(C)c2nc3ccccc3c(=O)n2C)CC1` (stereo not shown) [compound 245] are 25 to 60 µM and under 25%.
